Experimental data: ChEMBL document CHEMBL1201862, “PubChem BioAssay data set” (2004)
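Cultured in 96-well plates, cells were exposed to test compound for 48 hours across five concentrations. Here, GI50 denotes the concentration required for 50% inhibition of growth.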 Activity calls are given as the source filed them. Rule as the data show it: active = GI50 up to about 1.1 µM and inactive = higher.

How the values were obtained:
Assay in all cases: inhibition of tumour cell growth, NCI panel, 48 h
[1] = tested on: A549
[2] = tested on: ACHN
[3] = tested on: EKVX
[4] = tested on: HCT-15
[5] = tested on: HT-29
[6] = tested on: M14
[7] = tested on: MDA-MB-231
[8] = tested on: MDA-MB-435
[9] = tested on: NCI-H460
[10] = tested on: NCI/ADR-RES
[11] = tested on: OVCAR-4
[12] = tested on: RPMI-8226
[13] = tested on: RXF 393
[14] = tested on: SF-268
[15] = tested on: SK-MEL-5
[16] = tested on: T47D
[17] = tested on: TK-10
[18] = tested on: U-251
[19] = tested on: UACC-62
[20] = tested on: UO-31

SMILES | GI50 [1] | GI50 [2] | GI50 [3] | GI50 [4] [µM] | GI50 [5] | GI50 [6] | GI50 [7] | GI50 [8] | GI50 [9] | GI50 [10] | GI50 [11] | GI50 [12] | GI50 [13] | GI50 [14] | GI50 [15] | GI50 [16] | GI50 [17] | GI50 [18] | GI50 [19] | GI50 [20]
COC(=O)/C=C(\C(=O)OC)c1cc(C)c2cc(C(C)C)ccc(C)c1-2 | 28.2 µM (inactive) | 25.6 µM (inactive) | 71 µM (inactive) | 11.7 | 13.3 µM (inactive) | 23.5 µM (inactive) | 24.7 µM (inactive) | 30 µM (inactive) | 40.7 µM (inactive) | 32 µM (inactive) | 88.3 µM (inactive) | > 100 µM (inactive) | 41.4 µM (inactive) | > 100 µM (inactive) | 25.6 µM (inactive) | 15.4 µM (inactive) | 83.9 µM (inactive) | 51.1 µM (inactive) | 32.2 µM (inactive) | 20.5 µM (inactive)
O=C(NCC1Nc2ccncc2S(=O)(=O)N1)c1ccc(Br)cc1 (stereo not given) | > 100 µM (inactive) | > 100 µM (inactive) | > 100 µM (inactive) | 42.5 | > 100 µM (inactive) | 19.3 µM (inactive) | 20.1 µM (inactive) | 19.6 µM (inactive) | > 100 µM (inactive) | 59.8 µM (inactive) | 64.6 µM (inactive) | 32.5 µM (inactive) | > 100 µM (inactive) | 27.4 µM (inactive) | > 100 µM (inactive) | > 100 µM (inactive) | > 100 µM (inactive) | 30.4 µM (inactive) | 58.7 µM (inactive) | 25.1 µM (inactive)
CC(C)c1cc(C(F)(F)F)nc(NNc2nc(C(C)C)cc(C(F)(F)F)n2)n1 | 94 µM (inactive) | 56.8 µM (inactive) | 67.5 µM (inactive) | > 100 | > 100 µM (inactive) | 67.9 µM (inactive) | 65.3 µM (inactive) | > 100 µM (inactive) | 62.8 µM (inactive) | > 100 µM (inactive) | 72.6 µM (inactive) | > 100 µM (inactive) | 32.4 µM (inactive) | > 100 µM (inactive) | > 100 µM (inactive) | > 100 µM (inactive) | 19.1 µM (inactive) | 45.8 µM (inactive) | 80 µM (inactive) | > 100 µM (inactive)
CC(NC(=O)C(N)CC(=O)O)NC(=O)N(C)C(C)(C)C (stereo not given) | > 100 µM (inactive) | > 100 µM (inactive) | > 100 µM (inactive) | > 100 | > 100 µM (inactive) | > 100 µM (inactive) | > 100 µM (inactive) | > 100 µM (inactive) | > 100 µM (inactive) | > 100 µM (inactive) | > 100 µM (inactive) | > 100 µM (inactive) | > 100 µM (inactive) | > 100 µM (inactive) | > 100 µM (inactive) | > 100 µM (inactive) | > 100 µM (inactive) | > 100 µM (inactive) | > 100 µM (inactive) | > 100 µM (inactive)
COc1cc(C2SC(=N)Nc3c2c(C)nn3C(=O)c2ccccc2O)cc(OC)c1OC (stereo not given) | 4.24 µM (inactive) | 4.32 µM (inactive) | > 10 µM (inactive) | 4.31 | > 10 µM (inactive) | 5.92 µM (inactive) | 7.89 µM (inactive) | 6.78 µM (inactive) | 7.41 µM (inactive) | 4.38 µM (inactive) | 4.89 µM (inactive) | > 10 µM (inactive) | 8.51 µM (inactive) | 6.71 µM (inactive) | 3.78 µM (inactive) | 3.26 µM (inactive) | > 10 µM (inactive) | 6.76 µM (inactive) | 2.72 µM (inactive) | 6.18 µM (inactive)
